Assay results taken from PubChem BioAssay AID248 (DTP/NCI, 2004).
Toxic doses and inconclusive results are not listed. No stated cut-off is given here; in the data, active means T/C of 150% or more; inactive means T/C below 125%.

System: L1210 leukemia ip in BDF1 mice, survival T/C
Assay: NCI In Vivo Anticancer Drug Screen. Data for tumor model L1210 Leukemia (intraperitoneal) in B6D2F1 (BDF1) mice
Settings: endpoint: mean survival time, higher = longer survival
Procedure, shortened: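 Read-out is survival time, reported as the treated-group measurement over the vehicle-control measurement.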

[1] = dose: 100.0 mg/kg/injection, schedule: Q01DX001 (ip), vehicle: carboxymethylcellulose (CMC)
[2] = dose: 100.0 mg/kg/injection, schedule: Q01DX001 (ip), vehicle: saline
[3] = dose: 100.0 mg/kg/injection, schedule: Q01DX009 (ip), vehicle: saline
[4] = dose: 100.0 mg/kg/injection, schedule: Q04DX003 (ip), vehicle: saline
[5] = dose: 200.0 mg/kg/injection, schedule: Q01DX001 (ip), vehicle: carboxymethylcellulose (CMC)
[6] = dose: 200.0 mg/kg/injection, schedule: Q01DX001 (ip), vehicle: saline
[7] = dose: 200.0 mg/kg/injection, schedule: Q01DX009 (ip), vehicle: saline
[8] = dose: 200.0 mg/kg/injection, schedule: Q04DX003 (ip), vehicle: saline
[9] = dose: 400.0 mg/kg/injection, schedule: Q01DX001 (ip), vehicle: carboxymethylcellulose (CMC)
[10] = dose: 400.0 mg/kg/injection, schedule: Q01DX001 (ip), vehicle: saline
[11] = dose: 400.0 mg/kg/injection, schedule: Q04DX003 (ip), vehicle: saline
[12] = dose: 100.0 mg/kg/injection, schedule: Q01DX009 (ip), vehicle: saline with Tween-80
[13] = dose: 200.0 mg/kg/injection, schedule: Q01DX009 (ip), vehicle: saline with Tween-80
[14] = dose: 400.0 mg/kg/injection, schedule: Q01DX009 (ip), vehicle: saline with Tween-80
[15] = dose: 100.0 mg/kg/injection, schedule: Q04DX003 (ip), vehicle: saline with Tween-80
[16] = dose: 200.0 mg/kg/injection, schedule: Q04DX003 (ip), vehicle: saline with Tween-80
[17] = dose: 400.0 mg/kg/injection, schedule: Q04DX003 (ip), vehicle: saline with Tween-80
[18] = dose: 50.0 mg/kg/injection, schedule: Q01DX001 (ip), vehicle: carboxymethylcellulose (CMC)

Measured: T/C

COCCN(CCOC)/N=N/c1nc[nH]c1C(N)=O
inactive: dose: 50.0 mg/kg/injection, schedule: Q01DX001 (ip), vehicle: water 104 % of control | dose: 50.0 mg/kg/injection, schedule: Q04DX003 (ip), vehicle: water 98 % of control | dose: 100.0 mg/kg/injection, schedule: Q01DX001 (ip), vehicle: water 102 % of control | dose: 100.0 mg/kg/injection, schedule: Q04DX003 (ip), vehicle: water 107 % of control | dose: 200.0 mg/kg/injection, schedule: Q01DX001 (ip), vehicle: water 101 % of control | dose: 200.0 mg/kg/injection, schedule: Q04DX003 (ip), vehicle: water 100 % of control | dose: 400.0 mg/kg/injection, schedule: Q01DX001 (ip), vehicle: water 102 % of control | dose: 400.0 mg/kg/injection, schedule: Q04DX003 (ip), vehicle: water 111 % of control

O=C(COc1ccc(Cl)cc1Cl)NO
inactive: dose: 100.0 mg/kg/injection, schedule: Q01DX009 (ip), vehicle: Klucel (hydroxypropylcellulose) (HPC) 104 % of control | dose: 100.0 mg/kg/injection, schedule: Q04DX003 (ip), vehicle: Klucel (hydroxypropylcellulose) (HPC) 102 % of control | dose: 200.0 mg/kg/injection, schedule: Q01DX009 (ip), vehicle: Klucel (hydroxypropylcellulose) (HPC) 109 % of control | dose: 200.0 mg/kg/injection, schedule: Q04DX003 (ip), vehicle: Klucel (hydroxypropylcellulose) (HPC) 104 % of control | dose: 400.0 mg/kg/injection, schedule: Q01DX009 (ip), vehicle: Klucel (hydroxypropylcellulose) (HPC) 101 % of control | dose: 400.0 mg/kg/injection, schedule: Q04DX003 (ip), vehicle: Klucel (hydroxypropylcellulose) (HPC) 106 % of control

O=C1NC(=O)C(c2ccccc2)(c2ccc(Cl)cc2Cl)N1 (configuration not stated)
inactive: [1] 100 % of control | [2] 121 % of control | [3] 90 % of control | [4] 86 % of control | [5] 110 % of control | [6] 97 % of control | [7] 87 % of control | [8] 102 % of control | [9] 105 % of control | [10] 95 % of control | dose: 400.0 mg/kg/injection, schedule: Q01DX009 (ip), vehicle: saline 89 % of control | [11] 93 % of control

CCOC(=O)CN(C(=O)OCC)C(OCC)OCC
inactive: [12] 95 % of control | [13] 104 % of control | [14] 93 % of control

COc1cc(/C=C2/SC(=S)NC2=O)cc(OC)c1OC
inactive: [12] 96 % of control | [15] 100 % of control | [13] 92 % of control | [16] 100 % of control | [14] 97 % of control | [17] 117 % of control

O=C(C1CC1c1ccccc1)N1CCC(O)(c2ccccc2)CC1 (configuration not stated)
inactive: dose: 100.0 mg/kg/injection, schedule: Q04DX002 (ip), vehicle: saline with Tween-80 103 % of control | dose: 200.0 mg/kg/injection, schedule: Q04DX002 (ip), vehicle: saline with Tween-80 100 % of control | dose: 400.0 mg/kg/injection, schedule: Q04DX002 (ip), vehicle: saline with Tween-80 97 % of control

[N-]=[N+]=Nc1cnn(-c2ccccc2)c(=O)c1Cl
inactive: dose: 18.75 mg/kg/injection, schedule: Q01DX009 (ip), vehicle: saline with Tween-80 105 % of control | dose: 37.5 mg/kg/injection, schedule: Q01DX009 (ip), vehicle: saline with Tween-80 92 % of control | dose: 75.0 mg/kg/injection, schedule: Q01DX009 (ip), vehicle: saline with Tween-80 101 % of control

CCOC(=O)/C(=C\c1cccc2ccccc12)c1ccncc1
inactive: dose: 100.0 mg/kg/injection, schedule: Q01DX001 (ip), vehicle: saline with Tween-80 89 % of control | [12] 98 % of control | dose: 200.0 mg/kg/injection, schedule: Q01DX001 (ip), vehicle: saline with Tween-80 93 % of control | [13] 100 % of control | dose: 400.0 mg/kg/injection, schedule: Q01DX001 (ip), vehicle: saline with Tween-80 96 % of control

CN1CCC(O)(c2ccc(F)cc2)C(C(=O)c2ccc(F)cc2)C1 (configuration not stated)
inactive: [18] 100 % of control | [1] 100 % of control | [5] 94 % of control | [9] 94 % of control

CCc1c(C)c2n(c1C)C(=O)C=C2N(CC)CC
inactive: [2] 106 % of control | [6] 102 % of control | [10] 96 % of control

COc1ccc2c(c1)c1c(C)c3cnccc3c(C)c1n2CCCN1C(=O)c2ccccc2C1=O
inactive: dose: 50.0 mg/kg/injection, schedule: Q04DX003 (ip), vehicle: saline with Tween-80 94 % of control | [12] 96 % of control | [15] 92 % of control | [13] 101 % of control | [16] 93 % of control | dose: 400.0 mg/kg/injection, schedule: Q01DX001 (oral), vehicle: saline with Tween-80 110 % of control | [14] 101 % of control | [17] 94 % of control | dose: 800.0 mg/kg/injection, schedule: Q01DX001 (oral), vehicle: saline with Tween-80 108 % of control | dose: 1600.0 mg/kg/injection, schedule: Q01DX001 (oral), vehicle: saline with Tween-80 112 % of control

N#C[C@@H]1C2C=CC(CC2)[C@H]1C#N
inactive: dose: 0.5 mg/kg/injection, schedule: Q03HX024 (ip), vehicle: gum acacia 106 % of control | dose: 0.7 mg/kg/injection, schedule: Q03HX024 (ip), vehicle: gum acacia 106 % of control | dose: 1.1 mg/kg/injection, schedule: Q03HX024 (ip), vehicle: gum acacia 106 % of control | dose: 1.6 mg/kg/injection, schedule: Q03HX024 (ip), vehicle: gum acacia 102 % of control | dose: 2.4 mg/kg/injection, schedule: Q01DX009 (ip), vehicle: gum acacia 104 % of control | dose: 2.4 mg/kg/injection, schedule: Q03HX024 (ip), vehicle: gum acacia 103 % of control | dose: 3.6 mg/kg/injection, schedule: Q01DX009 (ip), vehicle: gum acacia 102 % of control | dose: 5.0 mg/kg/injection, schedule: Q01DX001 (ip), vehicle: gum acacia 103 % of control | dose: 5.0 mg/kg/injection, schedule: Q04DX003 (ip), vehicle: gum acacia 97 % of control | dose: 7.0 mg/kg/injection, schedule: Q01DX001 (ip), vehicle: gum acacia 101 % of control | dose: 7.0 mg/kg/injection, schedule: Q04DX003 (ip), vehicle: gum acacia 97 % of control | dose: 11.0 mg/kg/injection, schedule: Q01DX001 (ip), vehicle: gum acacia 100 % of control | dose: 11.0 mg/kg/injection, schedule: Q04DX003 (ip), vehicle: gum acacia 92 % of control

CCCCCC(=O)Oc1ccccc1C(=O)O
inactive: [18] 100 % of control | [1] 100 % of control | [5] 97 % of control | [9] 92 % of control

c1ccc([Si](c2ccccc2)(c2cccs2)c2cccs2)cc1
inactive: [12] 103 % of control | [13] 95 % of control

C1CC2(CCN1)SSC1(CCNCC1)S2
inactive: [3] 113 % of control | [4] 114 % of control | [7] 103 % of control | [8] 112 % of control | [11] 96 % of control
